# Measurements: patent US20250025454A1 (priority 2021, published 2025)
# Values joined by “and” are separate entries in the source; they are usually repeats but may differ in a detail not shown here. Equal values may be shown once. “Also recorded” adds a separate entry of the source. Read-outs that look alike come from different tables or passages of the source.
# Columns and labels:
# [1] = single oral dose, comparable for all doses, cited from earlier work
# [2] = female, 129/S, mouse, in vivo
# [3] = Scripps ReFrame database; cited from earlier work
# [4] = system: SARS-CoV-2; conditions: 35 compounds tested
# [5] = cited from earlier work
# [6] = in vivo; conditions: male, Sprague-Dawley, rat, po; for AUC(0-t): AUClast
# [7] = in vivo; conditions: female, 129S1, mouse; for Tmax: range
# [8] = in vivo; conditions: female, 129/S, mouse
# [9] = system: SARS-CoV-2/WA1; assay type: cell-based
# [10] = female, 129S1, mouse, in vivo, po
# [11] = system: SARS-CoV-2; conditions: Scripps ReFrame database; cited from earlier work
# [12] = Pharmacokinetics (plasma, lung at 24 h) after single oral dosing in male Sprague-Dawley rats; conditions: for AUC∞ / t1/2 / Cmax / AUC(0-t) / AUC(0-inf) / Tmax: male SD rat plasma; for AUC(0-t): AUClast
# [13] = in vivo; cited from earlier work
# [14] = male, Sprague-Dawley, rat, in vivo
# [15] = 1000 mg/kg, Plasma concentration
# [16] = single oral 250 mg/kg (Group 1), individual rats 450, 451, 452, listed as MDL-001, 250 mg/kg
# [17] = male, Sprague-Dawley, rat, in vivo, po, 250 mg/kg, single oral 250 mg/kg (Group 1), mean
# [18] = male, Sprague-Dawley, rat, in vivo, po, 500 mg/kg, single oral 500 mg/kg (Group 2), individual rats 453, 454, 455
# [19] = male, Sprague-Dawley, rat, in vivo, po, 500 mg/kg, single oral 500 mg/kg (Group 2), mean
# [20] = male, Sprague-Dawley, rat, in vivo, po, 750 mg/kg, single oral 750 mg/kg (Group 3), individual rats 456, 457, 458
# [21] = male, Sprague-Dawley, rat, in vivo, po, 750 mg/kg, single oral 750 mg/kg (Group 3), mean
# [22] = male, Sprague-Dawley, rat, in vivo, po, 1000 mg/kg, single oral 1000 mg/kg (Group 4), one outlier excluded, mean
smiles,measurement,setting,value
"Cc1c(-c2ccc(O)cc2)n(Cc2ccc(OCCN3CCCCC3)cc2)c2ccc(O)cc12 [Pipendoxifene, 2-(4-hydroxyphenyl)-3-methyl-1-[[4-(2-piperidin-1-ylethoxy)phenyl]methyl]indol-5-ol]",t1/2,[1],30 ± 16 h
same,t1/2,[1]; listed as pipendoxifene,30 h
same,C24h plasma concentration,[2]; 125 mg/kg,290 ng/mL
same,C24h plasma concentration,[2]; 250 mg/kg,194 ng/mL
same,Lung concentration,"[2]; po, 250 mg/kg",784 ng/mL
same,Plasma concentration,"[2]; po, 250 mg/kg",194 ng/mL
same,activity in HTS,[3],INACTIVE
same,activity in the HeLa-ACE2 cell-based SARS-CoV-2 assay,[4],demonstrated activity
same,mean t1/2,[5]; 150 mg dose,15.8 h
same,mean t1/2,[5]; 200 mg dose,26 h
same,Clearance,[5]; in vivo,4 to 10.5 h⁻¹ kg⁻¹
same,time to steady-state plasma levels,[5]; in vivo,4 to 5 days
same,AUC(0-t),[6]; 250 mg/kg,4120 ng·h/mL
same,Cmax,[6]; 250 mg/kg,336 ng/mL
same,Tmax,"[6]; 250 mg/kg, tmax",6 h
same,Cmax,[6]; 500 mg/kg,462 ng/mL
same,Tmax,"[6]; 500 mg/kg, tmax",6 h
same,AUC(0-t),[6]; 750 mg/kg,5260 ng·h/mL
same,Tmax,"[6]; 750 mg/kg, tmax",6 h
same,AUC(0-t),[6]; 1000 mg/kg,5700 ng·h/mL
same,AUC(0-inf),"[6]; 1000 mg/kg, AUC∞",7730 ng·h/mL
same,Cmax,[6]; 1000 mg/kg,452 ± 75 ng/mL
same,concentration at 0.25 h,[6]; [15],5.05 ng/mL
same,concentration at 0.25 hr,[6]; [15],5.05 ng/mL
same,concentration at 2 h,[6]; [15],226 ng/mL
same,concentration at 2 hr,[6]; [15],226 ng/mL
same,concentration at 4 h,[6]; [15],335 ng/mL
same,concentration at 4 hr,[6]; [15],335 ng/mL
same,concentration at 6 h,[6]; [15],489 ng/mL
same,concentration at 8 h,[6]; [15],295 ng/mL
same,concentration at 8 hr,[6]; [15],295 ng/mL
same,Tmax,"[6]; 1000 mg/kg, tmax",6 h
same,Tmax,"[6]; Mean Tmax (plasma), range",5.3 to 6 h
same,Kp,[7],~50
same,Tmax,"[7]; 250 mg/kg, Mean Tmax (plasma)",2 to 6 h
same,Tmax,"[7]; 250 mg/kg, Tmax (lung)",4 to 8 h
same,Cmax at 5 day,"[7]; po, 50 mg/kg",178 ± 8 ng/mL
same,MRT last,"[7]; po, 50 mg/kg",6.79 h
same,MRT last at 5 day,"[7]; po, 50 mg/kg",7.35 h
same,Tmax at 5 day,"[7]; po, 50 mg/kg",5 h
same,Cmax at 5 day,"[7]; po, 250 mg/kg",1050 ± 230 ng/mL
same,MRT last,"[7]; po, 250 mg/kg",8.27 h
same,Tmax at 5 day,"[7]; po, 250 mg/kg",6 h
same,Kp,[8]; C24 h lung concentrations relative to plasma concentrations (higher),3 to 4
same,Kp,"[8]; po, 250 mg/kg, L/P Ratio",4.04
same,Kp,"[8]; po, L/P Ratio",4.03
same,IC50 expressed as mass concentration,[9],0.328 µg/mL
same,lung concentrations achieved,[10],greater than 30 ug/g
same,Plasma concentration,"[10]; 250 mg/kg, 24 h",34 ng/mL
same,activity in HTS,[11],INACTIVE
same,Lung C24 h over SARS-CoV-2 IC50,[12]; 250 mg/kg,9.7 fold
same,Lung C24 h over SARS-CoV-2 IC50,[12]; 500 mg/kg,13.7 fold
same,Lung C24 h over SARS-CoV-2 IC50,[12]; 1000 mg/kg,40.9 fold
same,Lung C24 h over SARS-CoV-2 IC50,[12]; 6750 mg/kg (so in the source),13.3 fold
same,Lung C24 h over SARS-CoV-2 IC50,"[12]; 'higher dose', sentence in the rat section",5.4 fold
same,AUC∞,[12]; [16],4132 ng·h/mL and 5119 ng·h/mL and 2549 ng·h/mL
same,t1/2,[12]; [16],3.83 h and 8.95 h and 5.42 h
same,t1/2,"[12]; single oral 250 mg/kg (Group 1), mean, listed as MDL-001, 250 mg/kg",6.06 h
same,Cmax,"[12]; single oral 1000 mg/kg (Group 4), one outlier excluded, individual rats 459, 460, 461, listed as MDL-001, 1000 mg/kg",501 ng/mL
same,AUC∞,"[12]; single oral 1000 mg/kg (Group 4), one outlier excluded, individual rats 459, 460, listed as MDL-001, 1000 mg/kg",7888 ng·h/mL
same,adverse reactions / tolerability,"[12]; male SD rat, single PO dose 250-1000 mg/kg, listed as MDL-001",well tolerated with no adverse clinical signs; also recorded: No adverse reactions were observed
same,Kp at 24 h,"[12]; male, Sprague-Dawley, rat, in vivo, Lung/Plasma C24 h ratios, range, Day 1, across the dose range",97 to 122
same,AUC(0-t),"[12]; male, Sprague-Dawley, rat, in vivo, po, 250 mg/kg, single oral 250 mg/kg (Group 1), individual rats 450, 451, 452",4040 ng·h/mL
same,AUC(0-t),[12]; [17],3520 ± 980 ng·h/mL
same,AUC(0-inf),[12]; [17],3930 ng·h/mL
same,Cmax,"[12]; male, Sprague-Dawley, rat, in vivo, po, 250 mg/kg, Cmax, single oral 250 mg/kg (Group 1), individual rats 450, 451, 452",334 ng/mL
same,Cmax,"[12]; male, Sprague-Dawley, rat, in vivo, po, 250 mg/kg, Cmax, single oral 250 mg/kg (Group 1), mean",311 ± 42 ng/mL
same,half-life,"[12]; male, Sprague-Dawley, rat, in vivo, po, 250 mg/kg, t1/2, male SD rat plasma, single oral 250 mg/kg (Group 1), mean",6.06 ± 2.62 h
same,Tmax,[12]; [17],5.33 ± 1.15 h
same,AUC(0-t),[12]; [18],5730 ng·h/mL
same,AUC(0-inf),[12]; [18],6410 ng·h/mL
same,AUC(0-inf),[12]; [19],5850 ng·h/mL
same,half-life,"[12]; male, Sprague-Dawley, rat, in vivo, po, 500 mg/kg, t1/2, male SD rat plasma, single oral 500 mg/kg (Group 2), individual rats 453, 454, 455",6.08 h
same,half-life,"[12]; male, Sprague-Dawley, rat, in vivo, po, 500 mg/kg, t1/2, male SD rat plasma, single oral 500 mg/kg (Group 2), mean",5.2 ± 1.34 h
same,Tmax,[12]; [18],8 h
same,Tmax,[12]; [19],6.67 ± 1.15 h
same,AUC(0-t),[12]; [20],7530 ng·h/mL
same,AUC(0-inf),[12]; [20],7920 ng·h/mL
same,AUC(0-inf),[12]; [21],5520 ng·h/mL
same,Cmax,"[12]; male, Sprague-Dawley, rat, in vivo, po, 750 mg/kg, Cmax, single oral 750 mg/kg (Group 3), mean",415 ± 72 ng/mL
same,half-life,"[12]; male, Sprague-Dawley, rat, in vivo, po, 750 mg/kg, t1/2, male SD rat plasma, single oral 750 mg/kg (Group 3), individual rats 456, 457, 458",4.77 h
same,Tmax,[12]; [20],8 h
same,Tmax,[12]; [21],6.67 ± 1.15 h
same,concentration at 24 h,"[12]; male, Sprague-Dawley, rat, in vivo, po, 1000 mg/kg",13400 ng/g
same,AUC(0-t),"[12]; male, Sprague-Dawley, rat, in vivo, po, 1000 mg/kg, single oral 1000 mg/kg (Group 4), all data included, mean",6760 ± 930 ng·h/mL
same,AUC(0-t),"[12]; male, Sprague-Dawley, rat, in vivo, po, 1000 mg/kg, single oral 1000 mg/kg (Group 4), one outlier excluded, individual rats 459, 460, 461",3980 ng·h/mL
same,AUC(0-t),[12]; [22],5710 ± 1730 ng·h/mL
same,AUC(0-inf),[12]; [22],6880 ng·h/mL
same,half-life,"[12]; male, Sprague-Dawley, rat, in vivo, po, 1000 mg/kg, t1/2, male SD rat plasma, single oral 1000 mg/kg (Group 4), all data included, individual rats 459, 460, 461",4.3 h
same,half-life,"[12]; male, Sprague-Dawley, rat, in vivo, po, 1000 mg/kg, t1/2, male SD rat plasma, single oral 1000 mg/kg (Group 4), all data included, mean",4.88 ± 0.5 h
same,half-life,"[12]; male, Sprague-Dawley, rat, in vivo, po, 1000 mg/kg, t1/2, male SD rat plasma, single oral 1000 mg/kg (Group 4), one outlier excluded, individual rats 459, 460",4.3 h
same,half-life,"[12]; male, Sprague-Dawley, rat, in vivo, po, 1000 mg/kg, t1/2, male SD rat plasma, single oral 1000 mg/kg (Group 4), one outlier excluded, mean",4.73 h
same,half-life,"[12]; male, Sprague-Dawley, rat, in vivo, po, plasma t1/2, range, 250-1000 mg/kg single oral dose",4.71 to 6.06 h
same,concentration at 2 h,"[12]; male, Sprague-Dawley, rat, plasma, po, 500 mg/kg, Plasma concentration, male SD rat, single oral 500 mg/kg (Group 2), 2 hr, individual rats 453, 454, 455",136 ng/mL
same,concentration at 6 h,"[12]; male, Sprague-Dawley, rat, plasma, po, 500 mg/kg, Plasma concentration, male SD rat, single oral 500 mg/kg (Group 2), 6 hr, individual rats 453, 454, 455",428 ng/mL
same,concentration at 8 h,"[12]; male, Sprague-Dawley, rat, plasma, po, 500 mg/kg, Plasma concentration, male SD rat, single oral 500 mg/kg (Group 2), individual rats 453, 454, 455",561 ng/mL
same,concentration at 6 h,"[12]; male, Sprague-Dawley, rat, plasma, po, 750 mg/kg, Plasma concentration, male SD rat, single oral 750 mg/kg (Group 3), 6 hr, individual rats 456, 457, 458",381 ng/mL
same,concentration at 8 h,"[12]; male, Sprague-Dawley, rat, plasma, po, 750 mg/kg, Plasma concentration, male SD rat, single oral 750 mg/kg (Group 3), individual rats 456, 457, 458",497 ng/mL
same,AUC(0-t),"[12]; male, Sprague-Dawley, rat, plasma, po, 1000 mg/kg, single oral 1000 mg/kg (Group 4), one outlier excluded, individual rats 459, 460, 461",7440 ng·h/mL
same,AUC(0-inf),"[12]; male, Sprague-Dawley, rat, plasma, po, 1000 mg/kg, single oral 1000 mg/kg (Group 4), one outlier excluded, individual rats 459, 460",5880 ng·h/mL
same,Cmax,"[12]; male, Sprague-Dawley, rat, plasma, po, 1000 mg/kg, Cmax, single oral 1000 mg/kg (Group 4), one outlier excluded, individual rats 459, 460, 461",365 ng/mL
same,concentration at 6 h,"[12]; male, Sprague-Dawley, rat, plasma, po, 1000 mg/kg, Plasma concentration, male SD rat, single oral 1000 mg/kg (Group 4), all data included, 6 hr, individual rats 459, 460, 461",365 ng/mL
same,concentration at 4 hr,"[12]; male, Sprague-Dawley, rat, plasma, po, 1000 mg/kg, Plasma concentration, male SD rat, single oral 1000 mg/kg (Group 4), one outlier excluded, 4 hr, mean",381 ng/mL
same,concentration at 6 hr,"[12]; male, Sprague-Dawley, rat, plasma, po, 1000 mg/kg, Plasma concentration, male SD rat, single oral 1000 mg/kg (Group 4), one outlier excluded, 6 hr, individual rats 459, 460, 461",365 ng/mL
same,primary metabolite,[13],indole glucuronide
same,increase of plasma AUClast,[14],about 2 fold
same,AUClast,"[14]; po, 250 mg/kg",3515 ng·h/mL
same,Tmax,"[14]; po, 250 mg/kg",5.33 h
same,Tmax,"[14]; po, 500 mg/kg",6.67 h
same,Tmax,"[14]; po, 750 mg/kg",6.67 h
